In ChEMBL document CHEMBL4339245, “Grayanane Diterpenoids from the Leaves of Rhododendron auriculatum and Their Analgesic Activities” (2019):
The source made the active and inactive calls. The rule behind the calls is not given here.

Tested on: Mus musculus
Test: Analgesic activity in Kunming mouse model of acetic-acid-induced writhing assessed as inhibition of writhing numbers at 0.04 to 0.2 mg/kg measured for 30 mins relative to control
Type: functional, organism-based

Structure (SMILES)	Activity
CC(=O)O[C@@H]1[C@H]2CC[C@H]3[C@@](C)(O)[C@@H]4C[C@H](O)C(C)(C)[C@@]4(O)[C@H](O)C[C@@]13C[C@@]2(C)O	Active
C=C1[C@@H]2CC[C@@H]3[C@@H](OC(C)=O)[C@@]2(C[C@@H](O)[C@@]2(O)[C@H]1C[C@H](O)C2(C)C)C[C@@]3(C)O	Active

Tested on: Mus musculus
Test: Analgesic activity in Kunming mouse model of acetic-acid-induced writhing assessed as inhibition of writhing numbers at 1 mg/kg measured for 30 mins relative to control
Type: functional, organism-based

Structure (SMILES)	Activity
C=C1[C@@H]2CC[C@H]3C(C)=C[C@]2(C[C@@H](O)[C@@]2(O)[C@H]1C[C@H](O)C2(C)C)[C@@H]3OC(C)=O	Active
C=C1C2=C(C=C[C@@]34C[C@@H](CC[C@@H]13)[C@](C)(O)C4)C(C)(C)[C@@H](O)C2	Active

Tested on: Mus musculus
Test: Analgesic activity in Kunming mouse model of acetic-acid-induced writhing assessed as inhibition of writhing numbers at 5 mg/kg measured for 30 mins relative to control
Type: functional

Structure (SMILES)	Activity
C=C1[C@@H]2CC[C@@H]3C[C@@]2(C[C@@H](O)[C@@]2(O)[C@H]1C[C@@H](O)C2(C)C)C[C@@]3(C)O	Active
C=C1[C@@H]2CC[C@]3(O)C[C@@]2(C[C@@H](O)[C@@]2(O)[C@H]1C[C@H](O)C2(C)C)C[C@@]3(C)O	Active
C=C1[C@H]2C[C@H](O)C(C)(C)[C@@]2(O)[C@H](O)C[C@]23C=C(C)[C@H](CC[C@@H]12)C3	Active
CO[C@H]1O[C@]23[C@H](O)C[C@@]45C[C@@](O)(CC[C@H]4[C@H]1[C@@H]2C[C@H](O)C3(C)C)[C@](C)(O)C5	Active
C=C1[C@@H]2CC[C@@H]3C[C@@]2(CC[C@@]2(O)[C@H]1C[C@H](O)C2(C)C)C[C@]3(O)CO	Active
C=C1[C@@H]2CC[C@]3(O)C[C@@]2(C[C@@H](O)[C@@]2(O)[C@@H]1[C@H](O)[C@H](O)C2(C)C)C[C@@]3(C)O	Active
C=C1[C@@H]2CC[C@@H]3[C@@H](O)[C@@]2(C[C@@H](O)[C@@]2(O)[C@H]1C[C@H](O)C2(C)C)C[C@@]3(C)O	Active
C=C1[C@@H]2CC[C@@H]3C[C@@]2(C[C@@H](O)[C@@]2(O)[C@H]1C[C@H](O)C2(C)C)C[C@@]3(C)O	Active
C=C1[C@H]2C[C@H](O)C(C)(C)[C@@]2(O)[C@H](O)C[C@@]23C[C@@](O)(CC[C@@H]12)[C@](C)(O)C3	Active
C=C1[C@@H]2CC[C@@H]3C[C@@]2(CC[C@@]2(O)[C@H]1C[C@H](O)C2(C)C)C[C@@]3(C)O	Active
CC1=C2CC[C@]3(O)C[C@@]2(C[C@@H](O)[C@@]2(O)[C@H]1C[C@H](O)C2(C)C)C[C@@]3(C)O	52.3%
C=C1[C@H]2C[C@H](O)C(C)(C)[C@]2(O)CC[C@@]23C[C@@H](CC[C@@H]12)[C@](C)(O)C3	Active
CC1(C)C2=CC[C@@]34C[C@@H](CC[C@H]3[C@@](C)(O)[C@H]2C[C@@H]1O)[C@](C)(O)C4	Active
CC1=C2C[C@H](O)C(C)(C)[C@@H]2C(=O)C[C@@]23C[C@@H](CC=C12)[C@](C)(O)C3	Active
C=C1[C@H]2C[C@H](O)[C@@](C)(CO)[C@]2(O)CC[C@@]23C[C@@H](CC[C@@H]12)[C@](C)(O)C3	58.8%
C=C1[C@@H]2CC[C@@H]3C[C@@]2(C[C@@H](O)[C@@]2(O)[C@H]1C[C@H](O)C2(C)C)C[C@]3(O)CO	53.7%
C=C1[C@H]2C[C@H](O)C(C)(C)[C@@]2(O)[C@H](O)C[C@@]23C[C@@H](CC[C@@H]12)[C@](C)(O)C3	Active
C=C1[C@H]2C[C@@H](O)C(C)(C)[C@]2(O)CC[C@@]23C[C@@H](CC[C@@H]12)[C@](C)(O)C3	64.1%
CC1=C2CC[C@]3(O)C[C@@]2(C[C@@H](O)[C@@]2(O)[C@H]1[C@@H](O)[C@H](O)C2(C)C)C[C@@]3(C)O	Active
C=C1[C@@H]2[C@@H](O)[C@H](O)C(C)(C)[C@@]2(O)[C@H](O)C[C@@]23C[C@@](O)(CC[C@@H]12)[C@](C)(O)C3	Active

Tested on: Mus musculus
Test: Analgesic activity in Kunming mouse model of acetic-acid-induced writhing assessed as inhibition of writhing numbers at 0.04 mg/kg measured for 30 mins relative to control
Type: functional, organism-based

Structure (SMILES)	Activity
CN1CC[C@]23c4c5ccc(O)c4O[C@H]2[C@@H](O)C=C[C@H]3[C@H]1C5	Active

Tested on: Mus musculus
Test: Analgesic activity in Kunming mouse model of acetic-acid-induced writhing assessed as inhibition of writhing numbers at 0.2 mg/kg measured for 30 mins relative to control
Type: functional, organism-based

Structure (SMILES)	Activity
CC(=O)O[C@@H]1[C@H]2CC[C@H]3[C@@](C)(O)[C@@H]4C[C@H](O)C(C)(C)[C@@]4(O)[C@H](O)C[C@@]13C[C@@]2(C)O	Active
C=C1[C@@H]2CC[C@@H]3[C@@H](OC(C)=O)[C@@]2(C[C@@H](O)[C@@]2(O)[C@H]1C[C@H](O)C2(C)C)C[C@@]3(C)O	Active
